Numbered stars: 1 amine (or outer) side, 2 acyl side, 3 side chain; on linkers, the order of the positions; unused ones are H or OH. Bridge positions count the residues as written; N and C are the ends. Square brackets hold non-standard residues; d marks the D form. Side chains are listed from the residue outwards. Peptide text beside a SMILES is read from it. I, II: the chains in the order shown. * marks the point of attachment. C18 diacid = O=C(O)CCCCCCCCCCCCCCCCC(=O)*; γGlu = O=C(O)[C@H](CCC(=O)[*:2])N[*:1]; Ac4c = NC1(C(=O)O)CCC1; AEEA = NCCOCCOCC(=O)O; Aib = CC(C)(N)C(=O)O
molecular target: T1, human GLP-1 receptor (Homo sapiens, UniProt P43220); test: GLP-1 receptor potency, CRE luciferase reporter gene assay in BHK cells; format: cell-based; settings: BHK cells expressing human GLP-1 receptor, read-out: EC50 GLP-1R
T1 construct: expressed in transfected cells; host or cells: BHK cells (parent BHKTS13), clone FCW467-12A/KZ10-1, with CRE luciferase
How it was run: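 BHK cells stably expressing human GLP-1 receptor with CRE-luciferase reporter, 5×10EE3 cells/well in phenol red-free DMEM with 10 mM Hepes, 2% ovalbumin, 0.2% Pluronic F-68. Compounds at final 1×10EE-6 to 1×10EE-13 M, 3 h at 37° C; steadylite luminescence; EC50 by four-parameter fit, in pM.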

T1 sequence (P43220 24-463): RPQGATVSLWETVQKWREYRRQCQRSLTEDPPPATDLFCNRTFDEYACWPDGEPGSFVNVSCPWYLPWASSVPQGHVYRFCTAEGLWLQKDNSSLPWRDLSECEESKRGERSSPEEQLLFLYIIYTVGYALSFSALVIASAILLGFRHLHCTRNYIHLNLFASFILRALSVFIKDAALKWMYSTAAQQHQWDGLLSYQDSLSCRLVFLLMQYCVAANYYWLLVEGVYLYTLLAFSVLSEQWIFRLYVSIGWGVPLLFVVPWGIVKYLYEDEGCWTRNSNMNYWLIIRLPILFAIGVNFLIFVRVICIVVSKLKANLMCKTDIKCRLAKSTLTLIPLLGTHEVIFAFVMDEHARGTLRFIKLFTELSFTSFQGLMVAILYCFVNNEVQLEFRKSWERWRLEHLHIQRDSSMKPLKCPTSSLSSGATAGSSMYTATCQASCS

Point of comparison: `CC(C)C[C@H](NC(=O)[C@H](CC(=O)O)NC(=O)[C@H](CC(C)C)NC(=O)[C@H](Cc1ccc(O)cc1)NC(=O)[C@H](CCCCN)NC(=O)[C@H](CO)NC(=O)[C@H](CC(C)C)NC(=O)[C@H](CC(=O)O)NC(=O)[C@H](CO)NC(=O)[C@@H](NC(=O)[C@H](Cc1ccccc1)NC(=O)[C@@H](NC(=O)CNC(=O)[C@H](CCC(N)=O)NC(=O)C1(NC(=O)[C@@H](N)Cc2c[nH]cn2)CCC1)[C@@H](C)O)[C@@H](C)O)C(=O)N[C@@H](CCCCN)C(=O)N[C@@H](CCCNC(=N)N)C(=O)N[C@@H](C)C(=O)N[C@@H](CCCNC(=N)N)C(=O)N[C@@H](CCC(=O)O)C(=O)N[C@@H](Cc1ccccc1)C(=O)N[C@H](C(=O)N[C@@H](CCC(N)=O)C(=O)N[C@@H](Cc1c[nH]c2ccccc12)C(=O)N[C@@H](CC(C)C)C(=O)N[C@@H](CC(C)C)C(=O)N[C@@H](CCCCNC(=O)CC[C@H](NC(=O)CC[C@H](NC(=O)COCCOCCNC(=O)COCCOCCNC(=O)CC[C@H](NC(=O)CC[C@H](NC(=O)CCCCCCCCCCCCCCCCC(=O)O)C(=O)O)C(=O)O)C(=O)O)C(=O)O)C(=O)N[C@H](C(N)=O)[C@@H](C)O)C(C)C` [Example 47, N^ε28-[(4S)-4-carboxy-4-[[(4S)-4-carboxy-4-[[2-[2-[2-[[2-[2-[2-[[(4S)-4-carboxy-4-[[(4S)-4-carboxy-4-(17-carboxyheptadecanoylamino)butanoyl]amino]butanoyl]amino]ethoxy]ethoxy]acetyl]amino]ethoxy]ethoxy]acetyl]amino]butanoyl]amino]butanoyl]-[Acb2,Leu10,Leu16,Lys17,Arg20,Glu21,Leu27,Lys28]-Glucagon amide] (H-H[Ac4c]QGTFTSDLSKYLDLKRAREFVQWLLK([γGlu-γGlu-AEEA-AEEA-γGlu-γGlu-C18 diacid])T-NH2; N-terminus assumed), EC50 17 pM. Against it:
- CC(C)C[C@H](NC(=O)[C@H](Cc1ccc(O)cc1)NC(=O)[C@H](CCCCN)NC(=O)[C@H](CO)NC(=O)[C@H](CC(C)C)NC(=O)[C@H](CC(=O)O)NC(=O)[C@H](CO)NC(=O)[C@@H](NC(=O)[C@H](Cc1ccccc1)NC(=O)[C@@H](NC(=O)CNC(=O)[C@H](CCC(N)=O)NC(=O)C(C)(C)NC(=O)[C@@H](N)Cc1c[nH]cn1)[C@@H](C)O)[C@@H](C)O)C(=O)N[C@@H](CC(=O)O)C(=O)N[C@@H](C)C(=O)N[C@@H](CCCNC(=N)N)C(=O)N[C@@H](CCCNC(=N)N)C(=O)N[C@@H](C)C(=O)N[C@@H](CCCNC(=N)N)C(=O)N[C@@H](CCC(=O)O)C(=O)N[C@@H](Cc1ccccc1)C(=O)N[C@H](C(=O)N[C@@H](CCC(N)=O)C(=O)N[C@@H](Cc1c[nH]c2ccccc12)C(=O)N[C@@H](CC(C)C)C(=O)N[C@@H](CC(C)C)C(=O)N[C@@H](CCCCNC(=O)CC[C@H](NC(=O)CC[C@H](NC(=O)COCCOCCNC(=O)COCCOCCNC(=O)CC[C@H](NC(=O)CCCCCCCCCCCCCCCCC(=O)O)C(=O)O)C(=O)O)C(=O)O)C(=O)N[C@H](C(N)=O)[C@@H](C)O)C(C)C [Example 43, N^ε28-[(4S)-4-carboxy-4-[[(4S)-4-carboxy-4-[[2-[2-[2-[[2-[2-[2-[[(4S)-4-carboxy-4-(17-carboxyheptadecanoylamino)butanoyl]amino]ethoxy]ethoxy]acetyl]amino]ethoxy]ethoxy]acetyl]amino]butanoyl]amino]butanoyl]-[Aib2,Leu10,Ala16,Arg20,Glu21,Leu27,Lys28]-Glucagon amide] (H-H[Aib]QGTFTSDLSKYLDARRAREFVQWLLK([γGlu-γGlu-AEEA-AEEA-γGlu-C18 diacid])T-NH2; N-terminus assumed) — 3.4-fold lower, 5 pM
- CC(C)C[C@H](NC(=O)[C@H](Cc1ccc(O)cc1)NC(=O)[C@H](CCCCN)NC(=O)[C@H](CO)NC(=O)[C@H](CC(C)C)NC(=O)[C@H](CC(=O)O)NC(=O)[C@H](CO)NC(=O)[C@@H](NC(=O)[C@H](Cc1ccccc1)NC(=O)[C@@H](NC(=O)CNC(=O)[C@H](CCC(N)=O)NC(=O)C1(NC(=O)[C@@H](N)Cc2c[nH]cn2)CCC1)[C@@H](C)O)[C@@H](C)O)C(=O)N[C@@H](CCC(=O)O)C(=O)N[C@@H](CO)C(=O)N[C@@H](CCCNC(=N)N)C(=O)N[C@@H](CCCNC(=N)N)C(=O)N[C@@H](C)C(=O)N[C@@H](CCCNC(=N)N)C(=O)N[C@@H](CCC(=O)O)C(=O)N[C@@H](Cc1ccccc1)C(=O)N[C@H](C(=O)N[C@@H](CCC(N)=O)C(=O)N[C@@H](Cc1c[nH]c2ccccc12)C(=O)N[C@@H](CC(C)C)C(=O)N[C@@H](CC(C)C)C(=O)N[C@@H](CCCCNC(=O)CC[C@H](NC(=O)CC[C@H](NC(=O)COCCOCCNC(=O)COCCOCCNC(=O)CC[C@H](NC(=O)CCCCCCCCCCCCCCCCC(=O)O)C(=O)O)C(=O)O)C(=O)O)C(=O)N[C@H](C(N)=O)[C@@H](C)O)C(C)C [Example 44, N^ε28-[(4S)-4-carboxy-4-[[(4S)-4-carboxy-4-[[2-[2-[2-[[2-[2-[2-[[(4S)-4-carboxy-4-(17-carboxyheptadecanoylamino)butanoyl]amino]ethoxy]ethoxy]acetyl]amino]ethoxy]ethoxy]acetyl]amino]butanoyl]amino]butanoyl]-[Acb2,Leu10,Glu15,Arg20,Glu21,Leu27,Lys28]-Glucagon amide] (H-H[Ac4c]QGTFTSDLSKYLESRRAREFVQWLLK([γGlu-γGlu-AEEA-AEEA-γGlu-C18 diacid])T-NH2; N-terminus assumed) — 5.7-fold lower, 3 pM
- CC(C)C[C@H](NC(=O)[C@H](CC(=O)O)NC(=O)[C@H](CC(C)C)NC(=O)[C@H](Cc1ccc(O)cc1)NC(=O)[C@H](CCCCN)NC(=O)[C@H](CO)NC(=O)[C@H](CC(C)C)NC(=O)[C@H](CC(=O)O)NC(=O)[C@H](CO)NC(=O)[C@@H](NC(=O)[C@H](Cc1ccccc1)NC(=O)[C@@H](NC(=O)CNC(=O)[C@H](CCC(N)=O)NC(=O)C1(NC(=O)[C@@H](N)Cc2c[nH]cn2)CCC1)[C@@H](C)O)[C@@H](C)O)C(=O)N[C@@H](CCCCN)C(=O)N[C@@H](CCCNC(=N)N)C(=O)N[C@@H](C)C(=O)N[C@@H](CCCNC(=N)N)C(=O)N[C@@H](CCC(=O)O)C(=O)N[C@@H](Cc1ccccc1)C(=O)N[C@H](C(=O)N[C@@H](CCC(N)=O)C(=O)N[C@@H](Cc1c[nH]c2ccccc12)C(=O)N[C@@H](CC(C)C)C(=O)N[C@@H](CC(C)C)C(=O)N[C@@H](CCCCNC(=O)CNC(=O)[C@H](CO)NC(=O)[C@H](CCC(=O)O)NC(=O)CNC(=O)[C@H](CO)NC(=O)CC[C@H](NC(=O)CC[C@H](NC(=O)CCCCCCCCCCCCCCCCC(=O)O)C(=O)O)C(=O)O)C(=O)N[C@H](C(N)=O)[C@@H](C)O)C(C)C [Example 48] (I: H-H[Ac4c]QGTFTSDLSKYLDLKRAREFVQWLLKT-NH2 / II: {C18 diacid-γGlu-γGlu}-SGESG; amide I:28-II:C; N-terminus assumed) — 2.6-fold higher, 44 pM
- CC(C)C[C@H](NC(=O)[C@H](CC(=O)O)NC(=O)[C@H](CC(C)C)NC(=O)[C@H](Cc1ccc(O)cc1)NC(=O)[C@H](CCCCN)NC(=O)[C@H](CO)NC(=O)[C@H](CC(C)C)NC(=O)[C@H](CC(=O)O)NC(=O)[C@H](CO)NC(=O)[C@@H](NC(=O)[C@H](Cc1ccccc1)NC(=O)[C@@H](NC(=O)CNC(=O)[C@H](CCC(N)=O)NC(=O)C1(NC(=O)[C@@H](N)Cc2c[nH]cn2)CCC1)[C@@H](C)O)[C@@H](C)O)C(=O)N[C@@H](CCCNC(=N)N)C(=O)N[C@@H](CCCNC(=N)N)C(=O)N[C@@H](C)C(=O)N[C@@H](CCCNC(=N)N)C(=O)N[C@@H](CCC(=O)O)C(=O)N[C@@H](Cc1ccccc1)C(=O)N[C@H](C(=O)N[C@@H](CCC(N)=O)C(=O)N[C@@H](Cc1c[nH]c2ccccc12)C(=O)N[C@@H](CC(C)C)C(=O)N[C@@H](CC(C)C)C(=O)N[C@@H](CCCCNC(=O)CC[C@H](NC(=O)CC[C@H](NC(=O)COCCOCCNC(=O)COCCOCCNC(=O)CC[C@H](NC(=O)CC[C@H](NC(=O)CCCCCCCCCCCCCCCCC(=O)O)C(=O)O)C(=O)O)C(=O)O)C(=O)O)C(=O)N[C@H](C(N)=O)[C@@H](C)O)C(C)C [Example 49, N^ε28-[(4S)-4-carboxy-4-[[(4S)-4-carboxy-4-[[2-[2-[2-[[2-[2-[2-[[(4S)-4-carboxy-4-[[(4S)-4-carboxy-4-(17-carboxyheptadecanoylamino)butanoyl]amino]butanoyl]amino]ethoxy]ethoxy]acetyl]amino]ethoxy]ethoxy]acetyl]amino]butanoyl]amino]butanoyl]-[Acb2,Leu10,Leu16,Arg20,Glu21,Leu27,Lys28]-Glucagon amide] (H-H[Ac4c]QGTFTSDLSKYLDLRRAREFVQWLLK([γGlu-γGlu-AEEA-AEEA-γGlu-γGlu-C18 diacid])T-NH2; N-terminus assumed) — the same, 17 pM
- CC(C)C[C@H](NC(=O)[C@H](Cc1c[nH]c2ccccc12)NC(=O)[C@H](CCC(N)=O)NC(=O)[C@@H](NC(=O)[C@H](Cc1ccccc1)NC(=O)[C@H](CCC(=O)O)NC(=O)[C@H](CCCNC(=N)N)NC(=O)[C@H](C)NC(=O)[C@H](CCCNC(=N)N)NC(=O)[C@H](CCCNC(=N)N)NC(=O)C(C)(C)NC(=O)[C@H](CC(=O)O)NC(=O)[C@H](CC(C)C)NC(=O)[C@H](Cc1ccc(O)cc1)NC(=O)[C@H](CCCCN)NC(=O)[C@H](CO)NC(=O)[C@H](CC(C)C)NC(=O)[C@H](CC(=O)O)NC(=O)[C@H](CO)NC(=O)[C@@H](NC(=O)[C@H](Cc1ccccc1)NC(=O)[C@@H](NC(=O)CNC(=O)[C@H](CCC(N)=O)NC(=O)C(C)(C)NC(=O)[C@@H](N)Cc1c[nH]cn1)[C@@H](C)O)[C@@H](C)O)C(C)C)C(=O)N[C@@H](CC(C)C)C(=O)N[C@@H](CCCCNC(=O)CC[C@H](NC(=O)CC[C@H](NC(=O)COCCOCCNC(=O)COCCOCCNC(=O)CC[C@H](NC(=O)CCCCCCCCCCCCCCCCC(=O)O)C(=O)O)C(=O)O)C(=O)O)C(=O)N[C@H](C(N)=O)[C@@H](C)O [Example 51, N^ε28-[(4S)-4-carboxy-4-[[(4S)-4-carboxy-4-[[2-[2-[2-[[2-[2-[2-[[(4S)-4-carboxy-4-(17-carboxyheptadecanoylamino)butanoyl]amino]ethoxy]ethoxy]acetyl]amino]ethoxy]ethoxy]acetyl]amino]butanoyl]amino]butanoyl]-[Aib2,Leu10,Aib16,Arg20,Glu21,Leu27,Lys28]-Glucagon amide] (H-H[Aib]QGTFTSDLSKYLD[Aib]RRAREFVQWLLK([γGlu-γGlu-AEEA-AEEA-γGlu-C18 diacid])T-NH2; N-terminus assumed) — 2.8-fold lower, 6 pM
